The source of these data is PMC8138761 (The Journal of Biological Chemistry, 2021).

Common to all, as to assay type: biochemical
Settings in all cases: read-out: % inhibition at 10 μM

For test [1], the target named is T1, serine/threonine protein kinase-3 (MST2) (Homo sapiens, UniProt Q13188).
T1 sequence (Q13188 1-491): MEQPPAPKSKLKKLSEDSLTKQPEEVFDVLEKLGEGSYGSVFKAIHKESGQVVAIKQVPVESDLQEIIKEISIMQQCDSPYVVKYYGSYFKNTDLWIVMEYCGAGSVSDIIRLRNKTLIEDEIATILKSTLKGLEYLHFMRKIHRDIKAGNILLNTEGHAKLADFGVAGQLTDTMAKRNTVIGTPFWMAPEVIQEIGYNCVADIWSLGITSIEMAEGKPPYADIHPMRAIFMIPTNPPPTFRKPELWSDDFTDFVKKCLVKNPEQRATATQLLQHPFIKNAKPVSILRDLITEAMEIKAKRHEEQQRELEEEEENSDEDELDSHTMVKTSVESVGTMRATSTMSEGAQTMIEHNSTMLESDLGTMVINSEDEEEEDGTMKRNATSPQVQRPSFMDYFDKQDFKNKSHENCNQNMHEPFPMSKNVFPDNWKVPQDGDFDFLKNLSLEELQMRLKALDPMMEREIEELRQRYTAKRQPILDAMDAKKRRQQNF
Briefly: in vitro FRET kinase profiling at […], duplicate.

Test [2] concerns the target T2, serine/threonine protein kinase-4 (MST1) (Homo sapiens, UniProt Q13043).
T2 sequence (Q13043 1-487): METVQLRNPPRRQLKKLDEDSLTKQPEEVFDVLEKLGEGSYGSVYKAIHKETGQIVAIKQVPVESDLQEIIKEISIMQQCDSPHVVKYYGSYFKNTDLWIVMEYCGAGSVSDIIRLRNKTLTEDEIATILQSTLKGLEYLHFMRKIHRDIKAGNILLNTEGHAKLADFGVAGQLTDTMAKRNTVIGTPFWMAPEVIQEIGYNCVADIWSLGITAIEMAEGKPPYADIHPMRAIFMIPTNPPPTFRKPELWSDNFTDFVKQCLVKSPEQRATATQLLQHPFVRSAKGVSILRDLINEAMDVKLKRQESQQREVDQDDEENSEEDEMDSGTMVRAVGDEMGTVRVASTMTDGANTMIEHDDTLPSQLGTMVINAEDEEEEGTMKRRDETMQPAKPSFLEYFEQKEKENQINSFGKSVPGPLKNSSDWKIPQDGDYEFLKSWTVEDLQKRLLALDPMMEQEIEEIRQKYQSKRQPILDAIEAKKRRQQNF
The experiment in a line: in vitro FRET kinase profiling at […], duplicate.

Test [3] deals with cyclin-dependent kinase 5 (CDK5) (Homo sapiens, UniProt Q00535). Briefly: in vitro FRET kinase profiling at […], duplicate.
In test [4] the target is glycogen synthase kinase 3-beta (GSK3-β) (Homo sapiens, UniProt P49841). The experiment in a line: in vitro FRET kinase profiling.
Chain of glycogen synthase kinase 3-beta (GSK3-β) (P49841 whole entry): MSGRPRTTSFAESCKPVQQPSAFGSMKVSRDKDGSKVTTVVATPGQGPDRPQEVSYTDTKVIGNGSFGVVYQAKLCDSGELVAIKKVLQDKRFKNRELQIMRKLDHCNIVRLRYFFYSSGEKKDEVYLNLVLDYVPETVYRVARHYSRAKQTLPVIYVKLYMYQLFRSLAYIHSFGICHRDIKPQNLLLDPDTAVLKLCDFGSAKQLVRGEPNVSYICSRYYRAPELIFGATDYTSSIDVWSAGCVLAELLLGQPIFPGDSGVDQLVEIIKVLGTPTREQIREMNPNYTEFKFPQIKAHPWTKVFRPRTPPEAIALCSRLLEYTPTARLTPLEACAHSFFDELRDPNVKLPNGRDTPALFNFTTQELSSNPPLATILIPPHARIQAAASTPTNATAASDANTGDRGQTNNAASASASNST
Test [5] has as its target cyclin-dependent kinase (CDK) 1 (Homo sapiens, UniProt P06493). The experiment in a line: in vitro FRET kinase profiling at […], duplicate.
The target of test [6] is T3, serine/threonine kinase D2 (Homo sapiens, UniProt Q9BZL6).
T3 sequence (Q9BZL6 1-878): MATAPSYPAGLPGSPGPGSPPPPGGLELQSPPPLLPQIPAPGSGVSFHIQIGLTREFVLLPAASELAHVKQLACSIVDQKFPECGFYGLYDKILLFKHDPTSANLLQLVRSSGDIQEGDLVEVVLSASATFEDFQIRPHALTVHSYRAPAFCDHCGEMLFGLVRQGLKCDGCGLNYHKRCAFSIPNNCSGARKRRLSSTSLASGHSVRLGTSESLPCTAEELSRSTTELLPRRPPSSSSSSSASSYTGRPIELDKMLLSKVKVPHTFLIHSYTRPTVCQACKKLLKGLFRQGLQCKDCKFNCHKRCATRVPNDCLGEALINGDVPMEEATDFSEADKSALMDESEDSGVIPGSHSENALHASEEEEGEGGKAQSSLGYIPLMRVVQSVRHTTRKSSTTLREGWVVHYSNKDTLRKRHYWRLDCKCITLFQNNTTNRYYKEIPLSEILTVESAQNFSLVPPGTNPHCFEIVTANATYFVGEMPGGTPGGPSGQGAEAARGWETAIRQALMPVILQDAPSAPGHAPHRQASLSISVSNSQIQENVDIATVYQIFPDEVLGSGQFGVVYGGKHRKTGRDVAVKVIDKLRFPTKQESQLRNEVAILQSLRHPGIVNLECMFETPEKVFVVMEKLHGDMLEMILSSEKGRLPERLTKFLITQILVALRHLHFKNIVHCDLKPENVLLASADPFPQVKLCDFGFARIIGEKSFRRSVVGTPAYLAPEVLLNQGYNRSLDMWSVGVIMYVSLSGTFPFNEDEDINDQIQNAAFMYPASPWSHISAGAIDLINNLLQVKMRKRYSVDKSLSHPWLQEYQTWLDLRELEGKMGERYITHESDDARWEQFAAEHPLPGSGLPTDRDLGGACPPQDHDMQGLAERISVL
Briefly: in vitro FRET kinase profiling at […], duplicate.

Test [7] has as its target leucine-rich repeat kinase-2 (LRRK2) (Homo sapiens, UniProt Q5S007). The experiment in a line: in vitro FRET kinase profiling at […], duplicate.
Test [8] has as its target T4, checkpoint kinase-1 (CHK1) (Homo sapiens, UniProt O14757).
T4 sequence (O14757 1-476): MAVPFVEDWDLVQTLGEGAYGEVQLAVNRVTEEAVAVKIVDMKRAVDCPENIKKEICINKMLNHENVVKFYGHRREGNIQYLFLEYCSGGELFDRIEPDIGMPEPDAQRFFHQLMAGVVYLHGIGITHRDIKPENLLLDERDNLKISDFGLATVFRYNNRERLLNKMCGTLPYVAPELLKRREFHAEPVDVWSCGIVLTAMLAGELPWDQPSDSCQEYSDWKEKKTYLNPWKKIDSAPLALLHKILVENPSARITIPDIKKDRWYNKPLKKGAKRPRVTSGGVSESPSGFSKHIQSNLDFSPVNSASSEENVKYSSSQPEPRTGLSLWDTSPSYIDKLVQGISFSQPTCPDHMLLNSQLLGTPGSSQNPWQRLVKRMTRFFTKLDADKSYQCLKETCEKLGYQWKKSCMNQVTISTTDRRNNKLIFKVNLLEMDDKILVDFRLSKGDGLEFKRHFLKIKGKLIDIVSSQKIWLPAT
Briefly: in vitro FRET kinase profiling at […], duplicate.

The target in test [9] is checkpoint kinase-2 (CHK2) (Homo sapiens, UniProt O96017). Briefly: in vitro FRET kinase profiling at […], duplicate.
Chain of checkpoint kinase-2 (CHK2) (O96017 whole entry): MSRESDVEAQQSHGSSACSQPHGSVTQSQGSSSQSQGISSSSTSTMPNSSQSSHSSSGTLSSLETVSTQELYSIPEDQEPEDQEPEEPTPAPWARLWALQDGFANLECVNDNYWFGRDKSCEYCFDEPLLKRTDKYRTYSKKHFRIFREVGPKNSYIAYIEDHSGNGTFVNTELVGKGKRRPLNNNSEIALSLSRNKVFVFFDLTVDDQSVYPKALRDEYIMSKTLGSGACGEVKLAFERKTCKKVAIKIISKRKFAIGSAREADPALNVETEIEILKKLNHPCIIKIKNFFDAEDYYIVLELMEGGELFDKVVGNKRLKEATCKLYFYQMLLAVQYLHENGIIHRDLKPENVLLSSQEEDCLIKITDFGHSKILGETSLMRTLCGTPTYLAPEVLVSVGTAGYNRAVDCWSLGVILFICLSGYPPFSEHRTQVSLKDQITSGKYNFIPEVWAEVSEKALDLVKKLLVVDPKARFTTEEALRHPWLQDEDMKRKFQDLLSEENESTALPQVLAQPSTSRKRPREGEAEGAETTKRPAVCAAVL
The target of test [10] is serine/threonine protein kinase-24 (MST3) (Homo sapiens, UniProt Q9Y6E0). Briefly: in vitro FRET kinase profiling at […], duplicate.
Chain of serine/threonine protein kinase-24 (MST3) (Q9Y6E0 whole entry): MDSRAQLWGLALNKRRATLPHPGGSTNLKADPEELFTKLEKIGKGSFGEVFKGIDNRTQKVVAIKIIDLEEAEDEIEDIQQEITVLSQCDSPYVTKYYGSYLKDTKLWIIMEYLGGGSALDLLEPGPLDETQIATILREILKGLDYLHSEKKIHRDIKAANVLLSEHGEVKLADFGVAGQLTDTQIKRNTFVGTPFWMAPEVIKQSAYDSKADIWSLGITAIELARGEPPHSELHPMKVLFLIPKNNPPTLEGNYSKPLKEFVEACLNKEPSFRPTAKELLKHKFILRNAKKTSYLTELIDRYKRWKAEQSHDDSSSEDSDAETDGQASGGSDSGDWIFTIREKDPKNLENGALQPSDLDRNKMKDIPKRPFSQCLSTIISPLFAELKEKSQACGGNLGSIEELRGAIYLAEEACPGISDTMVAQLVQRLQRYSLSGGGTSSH

Chain of leucine-rich repeat kinase-2 (LRRK2) (Q5S007 whole entry): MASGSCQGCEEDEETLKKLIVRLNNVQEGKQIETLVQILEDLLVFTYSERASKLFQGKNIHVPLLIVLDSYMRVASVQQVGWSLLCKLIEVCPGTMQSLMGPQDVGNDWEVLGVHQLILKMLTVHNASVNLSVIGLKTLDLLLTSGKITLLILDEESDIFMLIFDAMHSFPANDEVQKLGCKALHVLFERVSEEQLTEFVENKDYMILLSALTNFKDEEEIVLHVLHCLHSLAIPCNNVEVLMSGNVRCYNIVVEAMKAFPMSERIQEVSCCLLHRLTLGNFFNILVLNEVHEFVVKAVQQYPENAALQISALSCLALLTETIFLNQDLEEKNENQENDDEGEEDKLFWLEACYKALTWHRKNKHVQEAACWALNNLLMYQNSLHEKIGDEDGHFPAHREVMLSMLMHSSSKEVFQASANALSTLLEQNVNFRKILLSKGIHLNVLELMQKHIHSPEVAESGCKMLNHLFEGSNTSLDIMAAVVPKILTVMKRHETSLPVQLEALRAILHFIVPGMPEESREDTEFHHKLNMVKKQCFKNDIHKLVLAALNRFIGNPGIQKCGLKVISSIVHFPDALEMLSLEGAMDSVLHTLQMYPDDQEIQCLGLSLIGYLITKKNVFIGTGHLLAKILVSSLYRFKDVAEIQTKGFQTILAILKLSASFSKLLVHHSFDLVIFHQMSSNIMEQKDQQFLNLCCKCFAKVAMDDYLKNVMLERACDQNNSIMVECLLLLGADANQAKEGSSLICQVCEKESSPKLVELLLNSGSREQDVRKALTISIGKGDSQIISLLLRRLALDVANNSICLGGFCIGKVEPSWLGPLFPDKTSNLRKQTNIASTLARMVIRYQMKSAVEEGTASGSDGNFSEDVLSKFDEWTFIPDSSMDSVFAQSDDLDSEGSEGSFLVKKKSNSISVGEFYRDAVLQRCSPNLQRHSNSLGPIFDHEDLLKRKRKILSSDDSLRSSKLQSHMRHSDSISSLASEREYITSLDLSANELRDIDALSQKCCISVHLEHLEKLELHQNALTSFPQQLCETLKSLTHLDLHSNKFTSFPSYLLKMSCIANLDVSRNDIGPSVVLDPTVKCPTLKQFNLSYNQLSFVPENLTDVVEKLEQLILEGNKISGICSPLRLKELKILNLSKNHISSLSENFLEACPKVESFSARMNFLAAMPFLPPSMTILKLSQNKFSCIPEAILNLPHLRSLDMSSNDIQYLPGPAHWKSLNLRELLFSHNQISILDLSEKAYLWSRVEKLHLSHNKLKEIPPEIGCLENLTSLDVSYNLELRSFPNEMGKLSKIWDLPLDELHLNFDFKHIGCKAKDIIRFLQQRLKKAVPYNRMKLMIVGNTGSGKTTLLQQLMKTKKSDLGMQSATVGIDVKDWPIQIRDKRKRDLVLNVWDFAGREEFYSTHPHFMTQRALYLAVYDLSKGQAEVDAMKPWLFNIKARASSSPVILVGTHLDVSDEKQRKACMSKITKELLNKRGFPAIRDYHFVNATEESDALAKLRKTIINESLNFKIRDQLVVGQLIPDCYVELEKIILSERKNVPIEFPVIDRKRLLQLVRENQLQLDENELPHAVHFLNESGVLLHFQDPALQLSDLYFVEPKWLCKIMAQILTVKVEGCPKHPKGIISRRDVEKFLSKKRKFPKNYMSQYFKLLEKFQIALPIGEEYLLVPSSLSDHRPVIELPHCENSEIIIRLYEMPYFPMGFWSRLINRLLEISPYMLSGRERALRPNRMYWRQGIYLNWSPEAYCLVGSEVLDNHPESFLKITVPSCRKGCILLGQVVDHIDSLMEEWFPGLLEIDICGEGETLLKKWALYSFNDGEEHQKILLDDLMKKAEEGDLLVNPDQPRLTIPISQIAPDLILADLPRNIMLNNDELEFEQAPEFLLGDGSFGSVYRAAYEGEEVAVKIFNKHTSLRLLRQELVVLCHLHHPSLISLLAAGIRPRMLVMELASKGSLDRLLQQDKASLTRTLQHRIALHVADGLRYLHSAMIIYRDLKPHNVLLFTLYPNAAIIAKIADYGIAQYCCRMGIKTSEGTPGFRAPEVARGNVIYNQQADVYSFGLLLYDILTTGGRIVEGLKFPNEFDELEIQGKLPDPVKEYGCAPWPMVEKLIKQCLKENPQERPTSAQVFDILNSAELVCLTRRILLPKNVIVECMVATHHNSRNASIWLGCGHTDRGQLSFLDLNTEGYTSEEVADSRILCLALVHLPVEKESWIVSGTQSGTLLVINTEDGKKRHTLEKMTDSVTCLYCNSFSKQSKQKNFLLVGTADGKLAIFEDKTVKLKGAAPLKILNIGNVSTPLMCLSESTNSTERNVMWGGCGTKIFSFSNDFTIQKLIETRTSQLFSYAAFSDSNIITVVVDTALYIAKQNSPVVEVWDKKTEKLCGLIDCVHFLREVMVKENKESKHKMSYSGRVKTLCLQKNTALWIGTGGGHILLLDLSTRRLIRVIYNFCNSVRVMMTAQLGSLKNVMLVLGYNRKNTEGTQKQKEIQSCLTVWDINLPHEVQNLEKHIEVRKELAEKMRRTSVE
Chain of cyclin-dependent kinase (CDK) 1 (P06493 whole entry): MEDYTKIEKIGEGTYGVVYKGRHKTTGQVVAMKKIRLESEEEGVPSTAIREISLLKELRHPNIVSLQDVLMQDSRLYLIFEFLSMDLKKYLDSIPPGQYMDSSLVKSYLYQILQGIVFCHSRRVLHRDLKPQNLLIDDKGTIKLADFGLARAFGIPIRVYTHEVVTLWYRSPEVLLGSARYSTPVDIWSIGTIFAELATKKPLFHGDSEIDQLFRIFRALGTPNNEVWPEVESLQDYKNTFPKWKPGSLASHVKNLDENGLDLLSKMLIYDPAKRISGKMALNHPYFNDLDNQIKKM
Chain of cyclin-dependent kinase (CDK) 1 (P14635 whole entry, further chain): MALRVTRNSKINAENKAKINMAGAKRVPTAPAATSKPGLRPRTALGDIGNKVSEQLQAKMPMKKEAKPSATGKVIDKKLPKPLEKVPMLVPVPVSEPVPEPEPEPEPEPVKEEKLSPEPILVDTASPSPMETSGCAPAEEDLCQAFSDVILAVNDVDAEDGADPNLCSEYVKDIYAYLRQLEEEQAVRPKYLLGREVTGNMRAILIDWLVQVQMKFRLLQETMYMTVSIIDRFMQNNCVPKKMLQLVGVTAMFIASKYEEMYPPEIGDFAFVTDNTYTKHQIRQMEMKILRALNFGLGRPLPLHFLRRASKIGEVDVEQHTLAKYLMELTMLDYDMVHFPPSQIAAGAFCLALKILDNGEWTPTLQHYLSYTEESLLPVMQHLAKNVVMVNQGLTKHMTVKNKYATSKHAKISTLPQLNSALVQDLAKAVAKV

With `Cc1cc(C)c2[nH]c(=O)c(-c3[nH]cnc3-c3ccccc3)cc2c1` [DIPQUO], the inhibition at 10 µM was above 70% in test [1]; above 70% in test [2]; above 70% in test [3]; 100% in [4]; above 70% in [5]; above 70% in test [6]. Besides, the inhibition at 10 µM in [7], in test [8], in test [9] and in [10] was above 70% each time.
